Results from the CombiSolv-Exp solvation set (Vermeire and Green 2021).

Experiment: solvent given as SMILES

## C1CCOC1
In CC(=O)N(C)C
  solvation free energy, 298 K: -3.96 kcal/mol
In CC(C)=O
  solvation free energy, 298 K: -4.12 kcal/mol
In CC(C)CC(C)(C)C
  solvation free energy, 298 K: -3.72 kcal/mol
In CC(C)CCCC(C)CCCC(C)CCCCC(C)CCCC(C)CCCC(C)C
  solvation free energy, 298 K: -3.35 kcal/mol
In CC(C)CCl
  solvation free energy, 298 K: -4.2 kcal/mol
In CC(C)O
  solvation free energy, 298 K: -4.01 kcal/mol
In CCC(C)Cl
  solvation free energy, 298 K: -4.16 kcal/mol
In CCCCCC
  solvation free energy, 298 K: -3.68 kcal/mol
In CCCCCCC
  solvation free energy, 298 K: -3.7 kcal/mol
In CCCCCCCC
  solvation free energy, 298 K: -3.66 kcal/mol
In CCCCCCCCCCCCCCCC
  solvation free energy, 298 K: -3.43 kcal/mol
In CCCCCCCCO
  solvation free energy, 298 K: -3.9 kcal/mol
In CCCCCl
  solvation free energy, 298 K: -4.19 kcal/mol
In CCCCN(C=O)CCCC
  solvation free energy, 298 K: -3.89 kcal/mol
In CCCCOCCCC
  solvation free energy, 298 K: -3.8 kcal/mol
In CCCCl
  solvation free energy, 298 K: -4.31 kcal/mol
In CCCO
  solvation free energy, 298 K: -4.02 kcal/mol
In CCN1CCCC1=O
  solvation free energy, 298 K: -3.95 kcal/mol
In CCN(CC)C(C)=O
  solvation free energy, 298 K: -3.97 kcal/mol
In CCNC(C)=O
  solvation free energy, 298 K: -3.89 kcal/mol
In CCNC=O
  solvation free energy, 298 K: -3.93 kcal/mol
In CCO
  solvation free energy, 298 K: -4.09 kcal/mol
In CCOC(C)=O
  solvation free energy, 298 K: -4.11 kcal/mol
In CN1CCCC1=O
  solvation free energy, 298 K: -4.04 kcal/mol
In CN1CCCCC1=O
  solvation free energy, 298 K: -3.92 kcal/mol
In CNC(C)=O
  solvation free energy, 298 K: -3.87 kcal/mol
In CO
  solvation free energy, 298 K: -4.43 kcal/mol
In CS(C)=O
  solvation free energy, 298 K: -3.67 kcal/mol
In ClC(Cl)(Cl)Cl
  solvation free energy, 298 K: -4.28 kcal/mol
In ClC(Cl)Cl
  solvation free energy, 298 K: -5.12 kcal/mol
In ClCCCl
  solvation free energy, 298 K: -4.53 kcal/mol
In NC=O
  solvation free energy, 298 K: -3.69 kcal/mol
In O
  solvation free energy, 298 K: -3.49 kcal/mol
In O=CN1CCOCC1
  solvation free energy, 298 K: -3.7 kcal/mol
In [2H]O[2H]
  solvation free energy, 298 K: -3.5 kcal/mol

## C1=CCC=C1
In Brc1cccc2ccccc12
  solvation free energy, 298 K: -2.84 kcal/mol
In CC(=O)OCc1ccccc1
  solvation free energy, 298 K: -2.92 kcal/mol
In CN1CCCC1=O
  solvation free energy, 298 K: -3.33 kcal/mol
In CN(C)C=O
  solvation free energy, 298 K: -3.41 kcal/mol
In O
  solvation free energy, 298 K: -0.22 kcal/mol
In c1ccc2ncccc2c1
  solvation free energy, 298 K: -2.88 kcal/mol

## CCCCC(=O)CC(=O)CCCC
In O
  solvation free energy, 298 K: -4.13 kcal/mol

## Cc1ccncc1
In CC(C)CC(C)(C)C
  solvation free energy, 298 K: -4.95 kcal/mol
In O
  solvation free energy, 298 K: -4.94 kcal/mol

## CCCC(C)CC (stereo unspecified)
In C=CCCCCCCCCCCCCCC
  solvation free energy, 298 K: -4.01 kcal/mol

## C#C
In C1COCCO1
  solvation free energy, 298 K: -1.71 kcal/mol
In CC(C)=O
  solvation free energy, 298 K: -1.83 kcal/mol
In CC(C)CC(C)(C)C
  solvation free energy, 298 K: -0.37 kcal/mol
In CCCCCC
  solvation free energy, 298 K: -0.52 kcal/mol
In CCCCO
  solvation free energy, 298 K: -0.82 kcal/mol
In CN(C)C=O
  solvation free energy, 298 K: -1.75 kcal/mol
In CO
  solvation free energy, 298 K: -1.42 kcal/mol
In COC(C)=O
  solvation free energy, 298 K: -1.76 kcal/mol
In Cc1ccc(C)cc1
  solvation free energy, 298 K: -0.8 kcal/mol
In ClC(Cl)(Cl)Cl
  solvation free energy, 298 K: -0.65 kcal/mol
In O
  solvation free energy, 298 K: 0 kcal/mol

## CC(C)Cc1ccccc1
In O
  solvation free energy, 298 K: 0.19 kcal/mol

## FC(F)(Cl)Cl
In CCCCCCC
  solvation free energy, 298 K: -1.8 kcal/mol
In CCCCCCCC
  solvation free energy, 298 K: -1.76 kcal/mol
In CCCCCCCC(=O)OCC(COC(=O)CCCCCCC)OC(=O)CCCCCCC
  solvation free energy, 298 K: -1.36 kcal/mol
In CCCCCCCCC
  solvation free energy, 298 K: -1.68 kcal/mol
In CCCCCCCCO
  solvation free energy, 298 K: -1.34 kcal/mol
In ClC(Cl)(Cl)Cl
  solvation free energy, 298 K: -1.92 kcal/mol

## CCCCCOC(=O)c1ccccc1C(=O)OCCCCC
In O
  solvation free energy, 298 K: -6.96 kcal/mol

## Clc1ccc(Cl)c(Cl)c1
In CCCCCC
  solvation free energy, 298 K: -6.98 kcal/mol
In O
  solvation free energy, 298 K: -1.16 kcal/mol

## CCOCCOCC
In O
  solvation free energy, 298 K: -3.54 kcal/mol

## CC(C)CCOC(=O)c1ccccc1C(=O)OCCC(C)C
In O
  solvation free energy, 298 K: -6.88 kcal/mol

## CCOc1ccc(C(=O)N(O)c2ccc(C)cc2)cc1
In O
  solvation free energy, 298 K: -12.4 kcal/mol

## C=CC(C)CC (stereo unspecified)
In CC#N
  solvation free energy, 298 K: -2.7 kcal/mol

## CN(C)C=O
In C1CCOC1
  solvation free energy, 298 K: -5.99 kcal/mol
In C1COCCO1
  solvation free energy, 298 K: -6.17 kcal/mol
In CC(C)=O
  solvation free energy, 298 K: -6.43 kcal/mol
In CCC(C)=O
  solvation free energy, 298 K: -6.41 kcal/mol
In CCCCCCCCCCCCCCCC
  solvation free energy, 298 K: -3.88 kcal/mol
In CCCCCCCCO
  solvation free energy, 298 K: -5.95 kcal/mol
In CCOC(C)=O
  solvation free energy, 298 K: -6.1 kcal/mol
In ClC(Cl)(Cl)Cl
  solvation free energy, 298 K: -4.73 kcal/mol
In O
  solvation free energy, 298 K: -7.77 kcal/mol
In [2H]O[2H]
  solvation free energy, 298 K: -7.47 kcal/mol
In c1ccccc1
  solvation free energy, 298 K: -6.19 kcal/mol

## ClC1C(Cl)C(Cl)C(Cl)C(Cl)C1Cl (stereo unspecified)
In CCCCCCCCC=CCCCCCCCC(=O)OCC(COC(=O)CCCCCCCC=CCCCCCCCC)OC(=O)CCCCCCCC=CCCCCCCCC
  solvation free energy, 298 K: -11.2 kcal/mol
In CCCCCCCCO
  solvation free energy, 298 K: -10.9 kcal/mol

## C=C(C)CC(C)(C)C
In CCC(C)=O
  solvation free energy, 298 K: -4.34 kcal/mol
In O
  solvation free energy, 298 K: 2.01 kcal/mol
In OCCO
  solvation free energy, 298 K: -1.42 kcal/mol
In OCCOCCO
  solvation free energy, 298 K: -2.19 kcal/mol
In OCCOCCOCCO
  solvation free energy, 298 K: -2.29 kcal/mol

## CC(C)(C)OC(=O)c1ccccc1C(=O)OC(C)(C)C
In O
  solvation free energy, 298 K: -7.09 kcal/mol

## COCCCNc1nc(NC(C)C)nc(SC)n1
In O
  solvation free energy, 298 K: -11.9 kcal/mol

## NC(=O)c1ccccc1
In O
  solvation free energy, 298 K: -11 kcal/mol
